From PubChem BioAssay AID1919007 (Molecular Pharmacology Branch, DTP, NCI, 2023)

Tested on: A498 complex spheroids with HUVEC/MSC, growth
Test: Anticancer human tumor A498 cell line growth inhibition [AhR];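 note: seven day exposure starting three days after spheroid seeding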;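 for viability, T/C: luminescence signal used as a surrogate for viable cells; luminescence viability scaled so 100% equals DMSO vehicle wells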
Details: for IC50: curve of first compound; for viability, T/C: stronger effect = lower value
In short: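 Complex tumor spheroids co-cultured with HUVEC and human MSC stroma; AhR antagonists tested in combination with standard-of-care and investigational agents. Top concentration at or near clinical Cmax (else 10 microM), half-log dilutions; growth expressed as percent test/control.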

[1] = second compound 0.1 µM, first compound 0.0316 µM
[2] = second compound 0.1 µM, first compound 0.1 µM
[3] = second compound 0.316 µM, first compound 0.0316 µM
[4] = second compound 0.316 µM, first compound 0.1 µM
[5] = second compound 1 µM, first compound 0.0316 µM
[6] = second compound 1 µM, first compound 0.1 µM
[7] = second compound 3.16 µM, first compound 0.0316 µM
[8] = second compound 3.16 µM, first compound 0.1 µM
[9] = second compound 10 µM, first compound 0.0316 µM
[10] = second compound 10 µM, first compound 0.1 µM
[11] = second compound 0.1 µM, first compound 0.316 µM
[12] = second compound 0.1 µM, first compound 1 µM
[13] = second compound 0.1 µM, first compound 3.16 µM
[14] = second compound 0.1 µM, first compound 10 µM
[15] = second compound 0.316 µM, first compound 0.316 µM
[16] = second compound 0.316 µM, first compound 1 µM
[17] = second compound 0.316 µM, first compound 3.16 µM
[18] = second compound 0.316 µM, first compound 10 µM
[19] = second compound 1 µM, first compound 0.316 µM
[20] = second compound 1 µM, first compound 1 µM
[21] = second compound 1 µM, first compound 3.16 µM
[22] = second compound 1 µM, first compound 10 µM
[23] = second compound 3.16 µM, first compound 0.316 µM
[24] = second compound 3.16 µM, first compound 1 µM
[25] = second compound 3.16 µM, first compound 3.16 µM
[26] = second compound 3.16 µM, first compound 10 µM
[27] = second compound 10 µM, first compound 0.316 µM
[28] = second compound 10 µM, first compound 1 µM
[29] = second compound 10 µM, first compound 3.16 µM
[30] = second compound 10 µM, first compound 10 µM

## CC[C@@]1(O)C(=O)OCc2c1cc1n(c2=O)Cc2cc3c(CN(C)C)c(O)ccc3nc2-1 + Cc1ccccc1N=Nc1ccc(NC(=O)c2ccnn2C)c(C)c1
Second compound 0.1 µM
  IC50: > 100 nM
Second compound 0.316 µM
  IC50: > 100 nM
Second compound 1 µM
  IC50: > 100 nM
Second compound 3.16 µM
  IC50: > 100 nM
Second compound 10 µM
  IC50: > 100 nM
Second compound 0.1 µM, first compound 0.000316 µM
  viability, T/C: 88.9%
Second compound 0.1 µM, first compound 0.001 µM
  viability, T/C: 93.4%
Second compound 0.1 µM, first compound 0.00316 µM
  viability, T/C: 87.9%
Second compound 0.1 µM, first compound 0.01 µM
  viability, T/C: 80.7%
[1]
  viability, T/C: 75.7%
[2]
  viability, T/C: 74.7%
Second compound 0.316 µM, first compound 0.000316 µM
  viability, T/C: 90.7%
Second compound 0.316 µM, first compound 0.001 µM
  viability, T/C: 99.7%
Second compound 0.316 µM, first compound 0.00316 µM
  viability, T/C: 92.8%
Second compound 0.316 µM, first compound 0.01 µM
  viability, T/C: 81%
[3]
  viability, T/C: 74.3%
[4]
  viability, T/C: 74.2%
Second compound 1 µM, first compound 0.000316 µM
  viability, T/C: 87.5%
Second compound 1 µM, first compound 0.001 µM
  viability, T/C: 92.7%
Second compound 1 µM, first compound 0.00316 µM
  viability, T/C: 86.9%
Second compound 1 µM, first compound 0.01 µM
  viability, T/C: 68%
[5]
  viability, T/C: 71.5%
[6]
  viability, T/C: 66.5%
Second compound 3.16 µM, first compound 0.000316 µM
  viability, T/C: 87.3%
Second compound 3.16 µM, first compound 0.001 µM
  viability, T/C: 90.4%
Second compound 3.16 µM, first compound 0.00316 µM
  viability, T/C: 87.7%
Second compound 3.16 µM, first compound 0.01 µM
  viability, T/C: 74.7%
[7]
  viability, T/C: 69.8%
[8]
  viability, T/C: 64.2%
Second compound 10 µM, first compound 0.000316 µM
  viability, T/C: 84%
Second compound 10 µM, first compound 0.001 µM
  viability, T/C: 84.7%
Second compound 10 µM, first compound 0.00316 µM
  viability, T/C: 89.1%
Second compound 10 µM, first compound 0.01 µM
  viability, T/C: 76.5%
[9]
  viability, T/C: 78%
[10]
  viability, T/C: 63.4%

## CCc1c2c(nc3ccc(O)cc13)-c1cc3c(c(=O)n1C2)COC(=O)[C@]3(O)CC + Cc1ccccc1N=Nc1ccc(NC(=O)c2ccnn2C)c(C)c1
Second compound 0.1 µM
  IC50: 57.6 nM
Second compound 0.316 µM
  IC50: 71.1 nM
Second compound 1 µM
  IC50: 52.1 nM
Second compound 3.16 µM
  IC50: 44.2 nM
Second compound 10 µM
  IC50: 60.4 nM
Second compound 0.1 µM, first compound 0.000949 µM
  viability, T/C: 89.2%
Second compound 0.1 µM, first compound 0.003 µM
  viability, T/C: 78.2%
Second compound 0.1 µM, first compound 0.00949 µM
  viability, T/C: 72.8%
Second compound 0.1 µM, first compound 0.03 µM
  viability, T/C: 55.9%
Second compound 0.1 µM, first compound 0.0949 µM
  viability, T/C: 44.1%
Second compound 0.1 µM, first compound 0.3 µM
  viability, T/C: 38.8%
Second compound 0.316 µM, first compound 0.000949 µM
  viability, T/C: 84.9%
Second compound 0.316 µM, first compound 0.003 µM
  viability, T/C: 83.5%
Second compound 0.316 µM, first compound 0.00949 µM
  viability, T/C: 80.3%
Second compound 0.316 µM, first compound 0.03 µM
  viability, T/C: 61.6%
Second compound 0.316 µM, first compound 0.0949 µM
  viability, T/C: 45.4%
Second compound 0.316 µM, first compound 0.3 µM
  viability, T/C: 45%
Second compound 1 µM, first compound 0.000949 µM
  viability, T/C: 83.1%
Second compound 1 µM, first compound 0.003 µM
  viability, T/C: 85.9%
Second compound 1 µM, first compound 0.00949 µM
  viability, T/C: 78%
Second compound 1 µM, first compound 0.03 µM
  viability, T/C: 58.2%
Second compound 1 µM, first compound 0.0949 µM
  viability, T/C: 38.8%
Second compound 1 µM, first compound 0.3 µM
  viability, T/C: 43.6%
Second compound 3.16 µM, first compound 0.000949 µM
  viability, T/C: 86.9%
Second compound 3.16 µM, first compound 0.003 µM
  viability, T/C: 78.7%
Second compound 3.16 µM, first compound 0.00949 µM
  viability, T/C: 76.2%
Second compound 3.16 µM, first compound 0.03 µM
  viability, T/C: 54.5%
Second compound 3.16 µM, first compound 0.0949 µM
  viability, T/C: 40%
Second compound 3.16 µM, first compound 0.3 µM
  viability, T/C: 34.8%
Second compound 10 µM, first compound 0.000949 µM
  viability, T/C: 84.3%
Second compound 10 µM, first compound 0.003 µM
  viability, T/C: 79.5%
Second compound 10 µM, first compound 0.00949 µM
  viability, T/C: 77.8%
Second compound 10 µM, first compound 0.03 µM
  viability, T/C: 62.2%
Second compound 10 µM, first compound 0.0949 µM
  viability, T/C: 41.4%
Second compound 10 µM, first compound 0.3 µM
  viability, T/C: 39.4%

## Nc1ccccc1NC(=O)c1ccc(CNC(=O)OCc2cccnc2)cc1 + Cc1ccccc1N=Nc1ccc(NC(=O)c2ccnn2C)c(C)c1
Second compound 0.1 µM
  IC50: 1500 nM
Second compound 0.316 µM
  IC50: 1670 nM
Second compound 1 µM
  IC50: 1430 nM
Second compound 3.16 µM
  IC50: 1200 nM
Second compound 10 µM
  IC50: 1160 nM
[1]
  viability, T/C: 101%
[2]
  viability, T/C: 91.4%
[11]
  viability, T/C: 82.5%
[12]
  viability, T/C: 64.6%
[13]
  viability, T/C: 26.8%
[14]
  viability, T/C: 1.44%
[3]
  viability, T/C: 123%
[4]
  viability, T/C: 92.6%
[15]
  viability, T/C: 86.5%
[16]
  viability, T/C: 72%
[17]
  viability, T/C: 28.5%
[18]
  viability, T/C: 1.77%
[5]
  viability, T/C: 103%
[6]
  viability, T/C: 96.2%
[19]
  viability, T/C: 82%
[20]
  viability, T/C: 61.5%
[21]
  viability, T/C: 27.3%
[22]
  viability, T/C: 1.56%
[7]
  viability, T/C: 89.3%
[8]
  viability, T/C: 91.6%
[23]
  viability, T/C: 74.4%
[24]
  viability, T/C: 54%
[25]
  viability, T/C: 26.9%
[26]
  viability, T/C: 1.8%
[9]
  viability, T/C: 84%
[10]
  viability, T/C: 80.7%
[27]
  viability, T/C: 67.8%
[28]
  viability, T/C: 53.6%
[29]
  viability, T/C: 29.6%
[30]
  viability, T/C: 1.63%

## Nc1ccn(C2OC(CO)C(O)C2(F)F)c(=O)n1 (stereo not given) + Cc1ccccc1N=Nc1ccc(NC(=O)c2ccnn2C)c(C)c1
Second compound 0.1 µM
  IC50: < 31.6 nM
Second compound 0.316 µM
  IC50: < 31.6 nM
Second compound 1 µM
  IC50: < 31.6 nM
Second compound 3.16 µM
  IC50: < 31.6 nM
Second compound 10 µM
  IC50: < 31.6 nM
[1]
  viability, T/C: 33.3%
[2]
  viability, T/C: 36%
[11]
  viability, T/C: 39.9%
[12]
  viability, T/C: 47.9%
[13]
  viability, T/C: 46.9%
[14]
  viability, T/C: 43.5%
[3]
  viability, T/C: 30.9%
[4]
  viability, T/C: 33.1%
[15]
  viability, T/C: 43.9%
[16]
  viability, T/C: 44.8%
[17]
  viability, T/C: 50.5%
[18]
  viability, T/C: 38%
[5]
  viability, T/C: 35.5%
[6]
  viability, T/C: 33.2%
[19]
  viability, T/C: 44%
[20]
  viability, T/C: 50.7%
[21]
  viability, T/C: 42.7%
[22]
  viability, T/C: 38.2%
[7]
  viability, T/C: 37%
[8]
  viability, T/C: 37.5%
[23]
  viability, T/C: 46.5%
[24]
  viability, T/C: 41.8%
[25]
  viability, T/C: 44.6%
[26]
  viability, T/C: 38.8%
[9]
  viability, T/C: 37.4%
[10]
  viability, T/C: 40.8%
[27]
  viability, T/C: 46.6%
[28]
  viability, T/C: 45.7%
[29]
  viability, T/C: 44.7%
[30]
  viability, T/C: 40.9%

## O=C(c1cc(Cc2n[nH]c(=O)c3ccccc23)ccc1F)N1CCN(C(=O)C2CC2)CC1 + Cc1ccccc1N=Nc1ccc(NC(=O)c2ccnn2C)c(C)c1
Second compound 0.1 µM
  IC50: > 10000 nM
Second compound 0.316 µM
  IC50: > 10000 nM
Second compound 1 µM
  IC50: > 10000 nM
Second compound 3.16 µM
  IC50: > 10000 nM
Second compound 10 µM
  IC50: > 10000 nM
[1]
  viability, T/C: 90.1%
[2]
  viability, T/C: 95.2%
[11]
  viability, T/C: 90.2%
[12]
  viability, T/C: 91.9%
[13]
  viability, T/C: 92.6%
[14]
  viability, T/C: 83.5%
[3]
  viability, T/C: 96.3%
[4]
  viability, T/C: 95.9%
[15]
  viability, T/C: 95.2%
[16]
  viability, T/C: 95.1%
[17]
  viability, T/C: 88.9%
[18]
  viability, T/C: 90.4%
[5]
  viability, T/C: 84.6%
[6]
  viability, T/C: 95.7%
[19]
  viability, T/C: 91.5%
[20]
  viability, T/C: 81%
[21]
  viability, T/C: 85.7%
[22]
  viability, T/C: 75.9%
[7]
  viability, T/C: 79.5%
[8]
  viability, T/C: 92.7%
[23]
  viability, T/C: 87.6%
[24]
  viability, T/C: 85.5%
[25]
  viability, T/C: 76.6%
[26]
  viability, T/C: 75.8%
[9]
  viability, T/C: 87.3%
[10]
  viability, T/C: 83.4%
[27]
  viability, T/C: 80.3%
[28]
  viability, T/C: 86.5%
[29]
  viability, T/C: 75.9%
[30]
  viability, T/C: 70.6%
